Test results from US7179615B1 (priority 1997, dated 2007).

Key:
[1] = tested on: VCAM-1; conditions: 0.2 mmol/l, 24 hours in conjunction with IL-1; cited from earlier work
[2] = tested on: endothelial cells; conditions: 0.2 mmol/l, 24 hours in conjunction with IL-1; cited from earlier work
[3] = tested on: cytoadherence of P. falciparum parasitised red cells to C32 melanoma cells; assay: C32 melanoma cell cytoadherence assay with SNO-cysteine-treated parasitised red cells; assay type: cell-based, Plasmodium falciparum; conditions: Expt 5: JR strain, SNO-cysteine final concentration 5 mM, 40 minutes, parasitised red cells resuspended in 2% w/v borate

N[C@@H](CCC(=O)N[C@@H](CSN=O)C(=O)NCC(=O)O)C(=O)O [SNO-glutathione]
inhibition of VCAM-1 [1]: maximal inhibition of VCAM-1
endothelial toxicity [2]: minimal endothelial toxicity

N[C@@H](CSN=O)C(=O)O [SNO-cysteine]
binding (cytoadherence to C32 melanoma cells) [3]: 0%
